Experimental data as given in patent publication US20210298299A1 (priority 2018, published 2021).
Where two headings read alike, the source gives them in different places.

Columns and labels:
Assay type in all cases: in vivo
[1] = system: cucumber anthracnose fungus Colletotrichum orbiculare; conditions: alone, rating scale of Test Example 1
[2] = system: rice blast fungus Pyricularia oryzae; conditions: alone
[3] = system: cucumber gray mold fungus Botrytis cinerea; assay: Test for control efficacy against cucumber gray mold; conditions: alone, from diameter of lesion area
Protocol: Test for Control Efficacy Against Cucumber Gray Mold
The agrochemical formulations diluted to predetermined concentrations were applied to the foliage of cucumber plants (variety: Suuyou) at the one-leaf stage grown in individual pots. The application rate was 50 mL per pot. On the day following the application, 6-mm-diameter paper disks were impregnated with a spore suspension of the cucumber gray mold fungus Botrytis cinerea cultured on PSA medium, and inoculated onto cucumber true leaves. The pots were kept at a temperature of 20° C. and a humidity of 100%. At 6 days after the inoculation, the control value was determined by the equation 4 shown below.
Control value (%)=(diameter of lesion area in non-treatment plot−diameter of lesion area in treatment plot)×100/diameter of lesion area in non-treatment plot [Math. 4]

[4] = system: wheat speckled leaf blotch fungus Septoria tritici; assay: Test for wheat speckled leaf blotch (Septoria tritici); conditions: alone
Protocol: Test for Wheat Speckled Leaf Blotch (Septoria tritici)
(§1) The agrochemical formulations diluted to predetermined concentrations were applied to wheat plants at a predetermined amount with a spray gun. After air-drying, the wheat plants were spray-inoculated with a spore suspension of the wheat speckled leaf blotch fungus Septoria tritici (1.0×10^7 spores/mL). After that, the wheat pots were kept in a greenhouse under light conditions at 15° C. and 100% RH to induce the development of the disease. At 17 days after the inoculation, the disease area percentage was indexed on a scale of 0 to 10 to evaluate the control efficacy. The control value is expressed in percentage (%) as shown below or in index form as in Example 1.
Disease Severity Index Scale
0: No manifestation of disease
1: Lesion area percentage is 1 to 10%.
2: Lesion area percentage is 11 to 20%.
3: Lesion area percentage is 21 to 30%.
4: Lesion area percentage is 31 to 40%.
5: Lesion area percentage is 41 to 50%.
6: Lesion area percentage is 51 to 60%.
7: Lesion area percentage is 61 to 70%.
8: Lesion area percentage is 71 to 80%.
9: Lesion area percentage is 81 to 90%.
10: Lesion area percentage is 91 to 100%.
Control value (%)=(disease severity index in non-treatment plot−disease severity index in treatment plot)×100/disease severity index in non-treatment plot [Math. 3]

[5] = system: leaf rust fungus Puccinia recondita; assay: Test for control efficacy against wheat leaf rust; conditions: alone, scale of 0 to 10
Protocol: Test for Control Efficacy Against Wheat Leaf Rust
as §1, with “the” for “the wheat speckled”, “rust” for “blotch”, “Puccinia recondita” for “Septoria tritici”, “7” for “17”, “efficacy.” for “efficacy. The control value is expressed in percentage (%) as shown below or in index form as in Example 1.”

[6] = system: tomato late blight fungus Phytophthora infestans; conditions: alone, rating scale of Test Example 2
Laodelphax striatellus = assay: Test for control efficacy against Laodelphax striatellus; conditions: alone, 30 days after the agrochemical treatment
From the text: Test for Control Efficacy Test Against Laodelphax striatellus
Adults of the test insect were released onto rice plants (variety: Kinmaze, 95 days after transplantation) grown in individual 2-L pots (8 females and 5 males per pot). At 11 days after the insect release (when hatched larvae were observed), mixed formulations of compound [1-7] and other agrochemicals and each individual agrochemical (prescribed effective doses) were separately applied. After air-drying and at 10 days after the agrochemical treatment, adults of the test insect were additionally released onto the rice plants (8 females and 5 males per pot). At 30 days after the agrochemical treatment, the number of survivors was measured, and the control value was calculated by equation 6. In addition, the expected value E for the mixed use was calculated by Colby's equation as described in Test Example 1. When the actual control efficacy of combined treatment with two different agrochemicals is greater than the expected value E, the combination can be regarded as having synergistic effect.
Control value (%)=(1−number of survivors/number of survivors in control plot)×100 [Math. 6]
Assuming that the control value for “no grade” is 49%, when the control values of the two different agrochemicals are both 49%, the expected value E calculated by Colby's equation is as follows: E=(49+49)−(49×49/100)=73.99. The control value of 73.99 corresponds to grade C. Therefore, when both the agrochemicals are graded as no grade, the expected value is C.

Plutella xylostella = assay: Test for control efficacy against Plutella xylostella; conditions: alone
From the text: Test for Control Efficacy Against Plutella xylostella
Brassica oleracea var. capitata (variety: YR Seitoku) seedlings were planted in a glass greenhouse, and after reaching the 12- to 15-leaf stage, the seedlings were inoculated with 3rd-instar larvae of Plutella xylostella. The number of surviving larvae per three plants before agrochemical treatment was counted. A mixed formulation of compound [1-2] and flubendiamide (prepared according to Formulation Example 5) and each individual agrochemical were separately diluted to predetermined concentrations in water and applied to the Brassica oleracea var. capitata plants. The number of surviving larvae was counted at 2 and 6 days after the application, and the control efficacy was calculated by the equation 5 shown below. In addition, the expected value E was calculated by Colby's equation as described in Test Example 1.
Control efficacy (%)=100−{(Ta×Cb)/(Tb×Ca)}×100 [Math. 5]
Ta=number of survivors after agrochemical treatment in treatment plot
Tb=number of survivors before agrochemical treatment in treatment plot […]
As a result of the test for control efficacy against Plutella xylostella, the control efficacy of the composition composed of compound […] was greater than the expected value E calculated by Colby's equation from the control efficacy of the individual compounds. […]

In the case of `Fc1ccc([C@]2(Cn3cncn3)O[C@H]2c2ccccc2Cl)cc1` (racemic) [Epoxiconazole 8EC, epoxiconazole], the Control value ([1]; 0.5 ppm) is reported as 0.0, the Control value ([1]; 2 ppm) is reported as 0.0 and the Control value ([2]; 0.5 ppm, ten-point scale) is reported as 0.0. It also gave a Control value ([2]; 2 ppm, ten-point scale) of 3.0, a Control value ([2]; 8 ppm, ten-point scale) of 10 and a Control value ([3]; 67 ppm) of 55%. The Control value ([3]; 200 ppm) was 100%, the “Control value (%)” value ([4]; 0.4 ppm, Compound [1-5] series) was 0% and the “Control value (%)” value ([4]; 1.1 ppm, Compound [1-5] series) was 0%. For the same compound, the “Control value (%)” value ([4]; 2 ppm, Compound [1-7] series) was 0.0%, the “Control value (%)” value ([4]; 3.3 ppm, Compound [1-5] series) was 16% and the “Control value (%)” value ([4]; 8 ppm, Compound [1-7] series) was 6.0%. For the same compound, the “Control value (%)” value ([4]; 10 ppm, Compound [1-5] series) was 86%, the Control value ([5]; 0.5 ppm) was 7.0 and the Control value ([5]; 2 ppm) was 10.0.

With `CO/C=C(/C(=O)OC)c1ccccc1Oc1cc(Oc2ccccc2C#N)ncn1` [Azoxystrobin 20SC, azoxystrobin] the Control value ([1]; 0.3 ppm) was 2.0, the Control value ([1]; 3 ppm) was 8.0 and the Control value ([2]; 0.3 ppm, ten-point scale) was 1.0. It also gave a Control value ([2]; 3 ppm, ten-point scale) of 10, a Control value ([6]; 0.3 ppm) of 0.0 and a Control value ([6]; 3 ppm) of 2.0. The Control value ([5]; 0.3 ppm) was 0.0, the Control value ([5]; 3 ppm) was 9.0 and the Grade (Laodelphax striatellus; 100 ppm) was “No grade (less than 50%)”. The Grade (Laodelphax striatellus; 500 ppm) was “No grade (less than 50%)”.

Compound `O=C(Nc1ccccc1-c1ccc(Cl)cc1)c1cccnc1Cl` [Boscalid 50WG, boscalid] has a Control value ([3]; 2 ppm) of 8%, a Control value ([3]; 7 ppm) of 18% and a Control value ([3]; 22 ppm) of 20%.

`CCC(Nc1ncnc(C)c1Cl)c1ccc(OC(F)F)cc1` (stereo not drawn) [Diflumetorim 10EC, diflumetorim] was tested, and the Control value ([1]; 10 ppm) was 2.0, the Control value ([2]; 10 ppm, ten-point scale) was 8.0 and the Control value ([5]; 10 ppm) was 1.0.

In the case of `CC1(C(=O)Nc2ccc(O)c(Cl)c2Cl)CCCCC1` [Fenhexamid 50SC, fenhexamid], the Control value ([3]; 7 ppm) is reported as 0%, the Control value ([3]; 22 ppm) is reported as 0% and the Control value ([3]; 200 ppm) is reported as 53%.

For `N#Cc1c[nH]cc1-c1cccc2c1OC(F)(F)O2` [Fludioxonil 20SC, fludioxonil], the Control value ([1]; 3 ppm) was 7.0, the Control value ([1]; 10 ppm) was 9.5 and the Control value ([2]; 3 ppm, ten-point scale) was 6.0. For the same compound, the Control value ([2]; 10 ppm, ten-point scale) was 9.0, the Control value ([3]; 7 ppm) was 0% and the Control value ([3]; 22 ppm) was 59%. The Control value ([5]; 3 ppm) was 0.0, the Control value ([5]; 10 ppm) was 0.0 and the Control value ([5]; 200 ppm) was 4.0.

Compound `O=C(NCCc1ncc(C(F)(F)F)cc1Cl)c1ccccc1C(F)(F)F` [Fluopyram 50SC, fluopyram] has a Control value ([1]; 3 ppm) of 0.0, a Control value ([1]; 10 ppm) of 2.0 and a Control value ([2]; regardless of the concentration) of 0. For the same compound, the “Control value (%)” value ([4]; 10 ppm, Compound [1-7] series) was 0.0%.

`Cn1cc(C(=O)Nc2ccccc2-c2cc(F)c(F)c(F)c2)c(C(F)F)n1` [Fluxapyroxad 6EC, fluxapyroxad] gave a Control value ([1]; 1 ppm) of 0.0, a Control value ([2]; 0.3 ppm, ten-point scale) of 0.0 and a Control value ([2]; 1 ppm, ten-point scale) of 0.0. For the same compound, the Control value ([6]; 1 ppm) was 0.0, the “Control value (%)” value ([4]; 0.07 ppm, Compound [1-5] series) was 16% and the “Control value (%)” value ([4]; 0.22 ppm, Compound [1-5] series) was 31%. The “Control value (%)” value ([4]; 0.67 ppm, Compound [1-5] series) was 65%, the “Control value (%)” value ([4]; 1 ppm, Compound [1-7] series) was 0.0% and the “Control value (%)” value ([4]; 2.0 ppm, Compound [1-5] series) was 98%. The “Control value (%)” value ([4]; 6.0 ppm, Compound [1-5] series) was 99%.

`OC(Cc1ccccc1Cl)(Cn1nc[nH]c1=S)C1(Cl)CC1` (stereo not drawn) [Prothioconazole 25EC, prothioconazole] showed a Control value ([1]; 6.25 ppm) of 8.0, a Control value ([1]; 25 ppm) of 10 and a Control value ([2]; 6.25 ppm, ten-point scale) of 5.0. For the same compound, the Control value ([2]; 25 ppm, ten-point scale) was 9.0, the Control value ([6]; 25 ppm) was 0.0 and the Control value ([5]; 6.25 ppm) was 0.0. It also gave a Control value ([5]; 25 ppm) of 5.0.

Work on `COC(=O)N(OC)c1ccccc1COc1ccn(-c2ccc(Cl)cc2)n1` [Pyraclostrobin 25EC, pyraclostrobin] yielded a Control value ([1]; 3 ppm) of 7.0, a Control value ([6]; 3 ppm) of 4.0 and a Control value ([5]; 1 ppm) of 5.0. The Control value ([5]; 3 ppm) was 9.0, the Grade (Laodelphax striatellus; 10 ppm) was “No grade (less than 50%)” and the Grade (Laodelphax striatellus; 50 ppm) was “A (100%)”. The Grade (Plutella xylostella; 10 ppm) was “No grade (less than 50%)” and the Grade (Plutella xylostella; 50 ppm) was “A (100%)”.

`O=C(Nc1ccccc1-c1ccc(F)c(F)c1)c1nccnc1C(F)(F)F` [Pyraziflumid 20SC, pyraziflumid] was tested, and the Control value ([1]; 0.5 ppm) was 0.0, the Control value ([1]; 2 ppm) was 0.0 and the Control value ([6]; 2 ppm) was 0.0. For the same compound, the “Control value (%)” value ([4]; 0.2 ppm, Compound [1-5] series) was 1%, the “Control value (%)” value ([4]; 0.7 ppm, Compound [1-5] series) was 53% and the “Control value (%)” value ([4]; 2 ppm, Compound [1-7] series) was 6.0%. For the same compound, the “Control value (%)” value ([4]; 2.2 ppm, Compound [1-5] series) was 92%, the “Control value (%)” value ([4]; 6.7 ppm, Compound [1-5] series) was 99% and the “Control value (%)” value ([4]; 20 ppm, Compound [1-5] series) was 100%. It also gave a Control value ([5]; 2 ppm) of 2.0.

With `CC(C)(C)C(O)(CCc1ccc(Cl)cc1)Cn1cncn1` (stereo not drawn) [Tebuconazole 25EW, tebuconazole] the Control value ([1]; 0.3 ppm) was 0.0, the Control value ([2]; 0.3 ppm, ten-point scale) was 0.0 and the Control value ([2]; 1 ppm, ten-point scale) was 0.0. For the same compound, the Control value ([6]; 1 ppm) was 0.0 and the “Control value (%)” value ([4]; 1 ppm, Compound [1-7] series) was 0.0%.
